Reference: publication PMC4912218, “Targeted metabolomics of Gammarus pulex following controlled exposures to selected pharmaceuticals in water” (The Science of the Total Environment, 2016)
Converted amounts (≈) assume the structure as drawn.

Legend:
[1] = in vivo; settings: in vivo
Procedure: (§1) From these toxicity profiles the NOAEL and the LOAEL were determined. Exposure experiments were performed in Pyrex® beakers, each containing 200 mL of AFW at 15 °C and ten adult animals (> 5 mg wet weight, ww). Live/dead animals were counted after 24 h by gently prodding and observing movement of appendages. The pharmaceutical concentrations tested were in the range of 0.01 to 250 mg L^− 1. […] Concentrations where 100, 50 and 0% of the animals died were repeated in duplicate or triplicate.

[2] = system: Gammarus pulex; assay: in vivo; settings: G. pulex
Procedure: as §1

[3] = system: Thamnocephalus platyurus; settings: ref Kim et al., 2009; cited from earlier work

Oc1cc(Cl)ccc1Oc1ccc(Cl)cc1Cl [Triclosan]
LC50 at 24 h [1]: 0.57 µg/mL (≈ 1.97 µM)
LC10 ([2]; 24 h): 0.20 µg/mL (≈ 0.691 µM)
LOAEL (C2) ([2]; 24 h acute toxicity profile): 0.3 mg L^− 1
NOAEL (C1) ([2]; 24 h acute toxicity profile): 0.1 mg L^− 1
24 h- LC50 T. platyurus [3]: 0.47 µg/mL
